molecular target: TrkA (Homo sapiens (Human), UniProt P04629); assay: TrkA kinase HTRF enzyme inhibition assay; format: biochemical; details: TrkA pre-incubated with 200 μM ATP
How it was run: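 HTRF ratio read-out of biotin-peptide (125 nM) phosphorylation, 1 h reaction after TrkA (2-10 nM) auto-activation with ATP (200 μM) for 20 min and 10 min compound pre-incubation in 50 mM HEPES pH 7.4 with MgCl2/MnCl2. Percent inhibition from initial rates in duplicate, fitted to single-site equation for IC50.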

Sequence of TrkA (P04629 33-796): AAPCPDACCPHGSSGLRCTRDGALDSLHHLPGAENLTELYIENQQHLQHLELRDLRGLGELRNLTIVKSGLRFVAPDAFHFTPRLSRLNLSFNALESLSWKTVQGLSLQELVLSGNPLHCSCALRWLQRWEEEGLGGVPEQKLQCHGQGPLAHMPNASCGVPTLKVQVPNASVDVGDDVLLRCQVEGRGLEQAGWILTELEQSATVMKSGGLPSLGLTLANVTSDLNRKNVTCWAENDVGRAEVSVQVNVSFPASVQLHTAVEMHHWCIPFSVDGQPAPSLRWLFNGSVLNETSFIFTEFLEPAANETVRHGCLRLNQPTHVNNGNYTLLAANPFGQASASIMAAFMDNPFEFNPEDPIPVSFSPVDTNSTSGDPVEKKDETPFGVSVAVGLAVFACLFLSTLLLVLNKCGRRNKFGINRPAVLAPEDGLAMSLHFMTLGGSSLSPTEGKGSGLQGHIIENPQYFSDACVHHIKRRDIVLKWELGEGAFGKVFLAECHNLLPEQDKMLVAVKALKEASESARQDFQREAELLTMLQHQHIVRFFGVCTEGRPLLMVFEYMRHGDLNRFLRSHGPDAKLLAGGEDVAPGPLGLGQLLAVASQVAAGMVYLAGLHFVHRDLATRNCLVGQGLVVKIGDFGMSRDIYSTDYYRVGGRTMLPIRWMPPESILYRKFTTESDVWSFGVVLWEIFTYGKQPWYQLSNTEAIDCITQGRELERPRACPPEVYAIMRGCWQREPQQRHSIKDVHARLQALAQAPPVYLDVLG

Compared with `CCOc1nc(CCO)ccc1NC(=O)c1coc2c1C(=O)NC(C)(C)C2` [Example 143, N-[2-ethoxy-6-(2-hydroxyethyl)pyridin-3-yl]-6,6-dimethyl-4-oxo-4,5,6,7-tetrahydrofuro[3,2-c]pyridine-3-carboxamide], `CCOc1nc(CO)ccc1NC(=O)c1coc2c1C(=O)NC(C)(C)C2` [Example 144, N-[2-ethoxy-6-(hydroxymethyl)pyridin-3-yl]-6,6-dimethyl-4-oxo-4,5,6,7-tetrahydrofuro[3,2-c]pyridine-3-carboxamide] is 2-fold higher in IC50: 24.6 nM for the first, 49.2 nM for the second.

First: CCOc1nc(C(=O)O)ccc1NC(=O)c1coc2c1C(=O)N(CCOC)C(C)(C)C2 [Example 145, 6-ethoxy-5-({[5-(2-methoxyethyl)-6,6-dimethyl-4-oxo-4,5,6,7-tetrahydrofuro[3,2-c]pyridin-3-yl]carbonyl}amino)pyridine-2-carboxylic acid]
Second: CC1(C)CC(=O)c2c(C(=O)Nc3ccc4nn(CCO)cc4c3)coc2C1 [Example 153, N-[2-(2-hydroxyethyl)-2H-indazol-5-yl]-6,6-dimethyl-4-oxo-4,5,6,7-tetrahydro-1-benzofuran-3-carboxamide]
The IC50 of the first is 5.8-fold lower: 7.9 nM for the first, 45.6 nM for the second. The first is the more potent here.

Compared with `Cn1ncc2cc(NC(=O)c3coc4c3C(=O)CC(C)(C)C4)ccc21` [Example 146, 6,6-dimethyl-N-(1-methyl-1H-indazol-5-yl)-4-oxo-4,5,6,7-tetrahydro-1-benzofuran-3-carboxamide], `CC1(C)CC(=O)c2c(C(=O)Nc3ccc4[nH]c(CO)nc4c3)coc2C1` [Example 154, N-[2-(hydroxymethyl)-1H-benzimidazol-5-yl]-6,6-dimethyl-4-oxo-4,5,6,7-tetrahydro-1-benzofuran-3-carboxamide] is 2.2-fold higher in IC50: 34.1 nM for the first, 74 nM for the second. The first is the more potent here.

`CC(=O)N1CCN(c2ccc(NC(=O)c3coc4c3C(=O)CC(C)(C)C4)cc2)CC1` [Example 148, N-[4-(4-acetylpiperazin-1-yl)phenyl]-6,6-dimethyl-4-oxo-4,5,6,7-tetrahydro-1-benzofuran-3-carboxamide] and `CC1(C)CC(=O)c2c(C(=O)Nc3ccc(N4CCN(S(C)(=O)=O)CC4)cc3)coc2C1` [Example 152, 6,6-dimethyl-N-{4-[4-(methylsulfonyl)piperazin-1-yl]phenyl}-4-oxo-4,5,6,7-tetrahydro-1-benzofuran-3-carboxamide] are within 1.5-fold of each other in IC50: 32.4 nM for the first, 35.8 nM for the second.

First: CC1(C)CC(=O)c2c(C(=O)Nc3ccc(N4CCNCC4)nc3)coc2C1 [Example 149, 6,6-dimethyl-4-oxo-N-[6-(piperazin-1-yl)pyridin-3-yl]-4,5,6,7-tetrahydro-1-benzofuran-3-carboxamide]
Second: CC1(C)CC(=O)c2c(C(=O)Nc3ccc(N4CCNCC4)cn3)coc2C1 [Example 151, 6,6-dimethyl-4-oxo-N-[5-(piperazin-1-yl)pyridin-2-yl]-4,5,6,7-tetrahydro-1-benzofuran-3-carboxamide]
The IC50 of the first is 2.1-fold higher: 135 nM for the first, 63.4 nM for the second. The second is the more potent here.

First: Cn1cc2cc(NC(=O)c3coc4c3C(=O)CC3(CCC3)C4)ccc2n1 [Example 150, N-(2-methyl-2H-indazol-5-yl)-4-oxo-4,7-dihydro-5H-spiro[1-benzofuran-6,1′-cyclobutane]-3-carboxamide]
Second: COc1cc(N2CCNCC2)ccc1NC(=O)c1coc2c1C(=O)CC(C)(C)C2 [Example 157, N-[2-methoxy-4-(piperazin-1-yl)phenyl]-6,6-dimethyl-4-oxo-4,5,6,7-tetrahydro-1-benzofuran-3-carboxamide]
The IC50 of the first is 6.8-fold higher: 43.2 nM for the first, 6.4 nM for the second. The second is the more potent here.

`CC1(C)CC(=O)c2c(C(=O)Nc3ccc(N4CCN(S(C)(=O)=O)CC4)cn3)coc2C1` [Example 155, 6,6-dimethyl-N-{5-[4-(methylsulfonyl)piperazin-1-yl]pyridin-2-yl}-4-oxo-4,5,6,7-tetrahydro-1-benzofuran-3-carboxamide] and `CC(=O)N1CCN(c2ccc(NC(=O)c3coc4c3C(=O)CC(C)(C)C4)nc2)CC1` [Example 156, N-[5-(4-acetylpiperazin-1-yl)pyridin-2-yl]-6,6-dimethyl-4-oxo-4,5,6,7-tetrahydro-1-benzofuran-3-carboxamide] are within 1.5-fold of each other in IC50: 54.8 nM for the first, 46.7 nM for the second.

Reference: patent publication US9777020B2, “Furo-3-carboxamide derivatives and methods of use” (AbbVie Inc., priority 2014, dated 2017)
